Results on one molecule are retold here after patent US8392127B2, “Methods and gene expression signature for assessing growth factor signaling pathway regulation status” (Merck Sharp & Dohme Corp., priority 2008, dated 2013).

One experiment concerns HCT116. The experiment can be described thus: Sensitivity to cell killing by cMET inhibitor MK-2461. The experiment is classed as cell-based.
A further experiment concerns HCT15 (or AGS). Described as above. In kind it is cell-based.
The subject of the next experiment is A549. The experiment is described as above. The experiment is classed as cell-based.
Another experiment has as its system HT29. The description is as above. In kind it is cell-based.
The subject of a further experiment is Colo205. The description is as above. The experiment is classed as cell-based.
For a further experiment, the system named is EBC-1. The description is as above. The experiment is classed as cell-based.
A further experiment relates to GTL-16. The description is as above. The experiment is classed as cell-based.
The subject of experiment [1] is growth factor signaling pathway signature in EBC-1. The experiment can be described thus: Growth factor signaling pathway signature score after MK-2461 in cell lines (microarray). In kind it is cell-based. To be noted: 1 μM, 6 and 12 hours post-treatment. As for the experimental part: (§1) Ten cell lines with alternations of the PI3K/MAPK pathway components were identified (see Table 6), including two cell lines with amplification of cMET (EBC-1 and GTL-16). […] To assess the regulation of the growth factor signaling pathway signature in these cells, these cell lines were treated with vehicle or 1 μM MK-2461. The cell lines were profiled at 6 and 12 hours post-treatment. Duplicate cultures were seeded in 6-well plates for each treatment group. Cell were ˜70% confluent at time of collection. Experiments were performed in duplicate.
(§2) RNA was harvested from both vehicle-treated and compound treated cells, and regulation of the growth factor signaling pathway by MK-2461 was assessed by comparing gene expression profiles of MK-2461 treated cells to vehicle treated cells. For every probe on the microarray, the log(10) ratio of expression in the MK-2461 treated samples relative to the cell line-matched vehicle treated samples was calculated. The growth factor signaling pathway signature score was calculated as the mean log(10) ratio of the genes in the “up” arm of the signature (see Table 5a) minus the mean log(10) ratio of the genes in the “down” arm of the signature (see Table 5b).

In experiment [2] the test system is growth factor signaling pathway signature in GTL-16. Described as above. In kind it is cell-based. The conditions noted are these: 1 μM, 6 and 12 hours post-treatment. As for the experimental part:
as §1, §2

The subject of a further experiment is EBC-1 tumor cells. The experiment can be described thus: EBC-1 xenograft tumor growth. In kind it is in vivo, HRLN female nu/nu mice. As for the experimental part: (§3) HRLN female nu/nu mice were subcutaneously implanted with 5×10^6 EBC-1 tumor cells. Tumors were allowed to grow an average size of 450-500 mg before treatment was administered. Xenografts were treated with vehicle or 11, 34, or 112 mpk of MK-2461 (n=4 for each treatment group). […] Treatment was administered PO BID for 7 days. Tumors were harvested 2 hours after the final dose, as this was the estimated time to achieve Cmax.

In experiment [3] the test system is growth factor signaling pathway signature in EBC-1 xenografts. The experiment can be described thus: Growth factor signaling pathway signature score in EBC-1 xenografts (microarray). The experiment is classed as in vivo, HRLN female nu/nu mice. The conditions noted are these: 112 mpk PO BID for 7 days; tumors harvested 2 hours after the final dose. The method, then: as §3
RNA was harvested from both vehicle-treated and compound-treated samples. Regulation of the growth factor signaling pathway signature by MK-2461 was assessed by comparing gene expression profiles of MK-2461 treated samples to the mean gene expression profile of the 4 vehicle treated samples. The log(10) ratio of expression in the MK-2461 treated samples relative to the mean of the vehicle treated samples was calculated for every probe on the microarray. The growth factor signaling pathway signature score was calculated as the mean log(10) ratio of the genes in the “up” arm of the signature (see Table 5a) minus the mean log(10) ratio of the genes in the “down” arm of the signature (see Table 5b).

Entries after “also recorded” stand apart in the source; their conditions may differ. Read-outs that look alike come from different tables or passages of the source.

Turning to `CN(C[C@@H]1COCCO1)S(=O)(=O)Nc1ccc2ccc3ncc(-c4cnn(C)c4)cc3c(=O)c2c1` [MK-2461, N-[(2R)-1,4-dioxan-2-ylmethyl]-N-methyl-N′-[3-(1-methyl-1H-pyrazol-4-yl)-5-oxo-5H-benzo[4,5]cyclohepta[1,2-b]pyridin-7-yl]sulfamide], the “sensitive to MK2461” value in the experiment on HCT116 is “no”; in the experiment with HCT15 (or AGS), “no”; with A549, “no”; in the experiment on HT29, “no”; in the experiment with Colo205, “no”; in the experiment with EBC-1, “sensitive to cell killing”. In addition, the “sensitive to MK2461” value is reported as “✓” with EBC-1 (listed as MK2461), “sensitive to cell killing” in the experiment on GTL-16 and “✓” in the experiment with GTL-16 (listed as MK2461). The “inhibition of the growth factor signaling pathway signature” value in experiment [1] and in [2] was “Inhibition of the growth factor signaling pathway signature was observed; also recorded: inhibition of the growth factor signaling pathway was only observed” each time. Besides, the “effect on tumor growth” value with EBC-1 tumor cells (11 mpk PO BID) and in the experiment with EBC-1 tumor cells (34 mpk PO BID) was “no effect on tumor growth” each time. Besides, the efficacy in xenografts entry with EBC-1 tumor cells (112 mpk) is “only dose that resulted in efficacy”. The “tumor growth inhibition compared to vehicle treatment” value in the experiment with EBC-1 tumor cells (112 mpk PO BID) is “approximately 30%”. Moreover, in experiment [3], the “inhibition of the growth factor signaling pathway signature in xenografts” value is “Inhibition of the growth factor signaling pathway signature was only observed”.
